Columns and labels:
[1] = refractive index (Na D-line) (dimensionless); xn = mol fraction of the nth substance listed; details: 313.15 K, 101 kPa, Liquid, Standard Abbe refractometry
[2] = xn = mol fraction of the nth substance listed; details: 313.15 K, 101 kPa, Liquid; for speed of sound: Sing-around technique in a fixed-path interferometer; for mass density: Vibrating tube method

CCCCCCC [heptane] + c1ccccc1
x1 = 1
Details | mass density [kg/m3] | refractive index | speed of sound [m/s]
[1] | – | 1.37737 | –
[2] | 666.6 | – | 1066.5

CCc1ccccc1 [ethylbenzene] + CCCCCCCC
Details | mass density, [2] [kg/m3] | refractive index, [1] | speed of sound, [2] [m/s]
x2 = 0 | 849.2 | 1.48426 | 1256.9
x2 = 0.0536 | 837.6 | 1.47786 | 1244.1
x2 = 0.1028 | 827.4 | 1.47159 | 1232.9
x2 = 0.2037 | 807.4 | 1.45954 | 1212.1
x2 = 0.3032 | 788.7 | 1.4483 | 1193.8
x2 = 0.4015 | 771.4 | 1.43795 | 1177.7
x2 = 0.5013 | 755 | 1.42817 | 1163.3
x2 = 0.6039 | 739.2 | 1.41883 | 1150.1
x2 = 0.701 | 725.1 | 1.41043 | 1138.8
x2 = 0.7996 | 711.6 | 1.40254 | 1128.3
x2 = 0.9012 | 698.6 | 1.39489 | 1119.3
x2 = 0.9515 | 692.3 | 1.39112 | 1115

Cc1ccccc1 [toluene] + CCCCCCCC
x2 = 0
Details | mass density [kg/m3] | refractive index | speed of sound [m/s]
[1] | – | 1.48509 | –
[2] | 848 | – | 1240.7

c1ccccc1 [benzene] + CCCCCC
Details | mass density, [2] [kg/m3] | refractive index, [1] | speed of sound, [2] [m/s]
x2 = 0 | 857.4 | 1.48752 | 1230
x2 = 0.0378 | 845.3 | 1.48075 | 1214.8
x2 = 0.1009 | 825.8 | 1.46941 | 1191.1
x2 = 0.1986 | 797.9 | 1.45313 | 1158.5
x2 = 0.2979 | 772.2 | 1.43818 | 1129.8
x2 = 0.402 | 747.7 | 1.42416 | 1104.3
x2 = 0.6024 | 706.3 | 1.40043 | 1063.9
x2 = 0.7014 | 688.2 | 1.39011 | 1047.7
x2 = 0.801 | 671.4 | 1.38019 | 1033.2
x2 = 0.9083 | 654.9 | 1.37148 | 1020.2
x2 = 0.9464 | 649.2 | 1.36837 | 1015.9

Cc1ccccc1 [toluene] + CCCCCC
x2 = 0
Details | mass density [kg/m3] | refractive index | speed of sound [m/s]
[1] | – | 1.48464 | –
[2] | 848 | – | 1240.7

CCCCCCCC [octane] + CCc1ccccc1
x1 = 1
Details | mass density [kg/m3] | refractive index | speed of sound [m/s]
[1] | – | 1.38769 | –
[2] | 686.3 | – | 1110.6

CCCCCCCCC [nonane] + c1ccccc1
Details | mass density, [2] [kg/m3] | refractive index, [1] | speed of sound, [2] [m/s]
x1 = 0.0535 | 839.7 | 1.47693 | 1212.1
x1 = 0.1025 | 825.4 | 1.46801 | 1199
x1 = 0.2013 | 800.8 | 1.45327 | 1179.5
x1 = 0.3006 | 780.6 | 1.44079 | 1166.1
x1 = 0.3997 | 763.8 | 1.43104 | 1157.2
x1 = 0.5 | 749.5 | 1.42229 | 1151.4
x1 = 0.5992 | 737.3 | 1.41549 | 1147.7
x1 = 0.7052 | 726.2 | 1.40945 | 1145.9
x1 = 0.8034 | 717.2 | 1.40436 | 1145.2
x1 = 0.9018 | 709.3 | 1.3999 | 1145.6
x1 = 0.9499 | 705.7 | 1.39796 | 1145.9
x1 = 1 | 702.2 | 1.39609 | 1146.4

Cc1ccccc1 [toluene] + CCCCCCC
Details | mass density, [2] [kg/m3] | refractive index, [1] | speed of sound, [2] [m/s]
x2 = 0 | 848 | 1.48464 | 1240.7
x2 = 0.0496 | 835.7 | 1.47712 | 1225.2
x2 = 0.1037 | 822.8 | 1.46965 | 1211.4
x2 = 0.204 | 800.2 | 1.45586 | 1185.7
x2 = 0.406 | 759.4 | 1.43176 | 1144.8
x2 = 0.5045 | 741.5 | 1.42117 | 1127.8
x2 = 0.6016 | 724.9 | 1.41138 | 1113.1
x2 = 0.7011 | 709 | 1.40201 | 1099.4
x2 = 0.8029 | 693.7 | 1.39298 | 1087
x2 = 0.9019 | 679.7 | 1.38489 | 1075.9
x2 = 0.9517 | 673 | 1.38102 | 1071.2

c1ccccc1 [benzene] + CCCCCCC
Details | mass density, [2] [kg/m3] | refractive index, [1] | speed of sound, [2] [m/s]
x2 = 0 | 857.4 | 1.48752 | 1230
x2 = 0.0511 | 840.8 | 1.47784 | 1210.9
x2 = 0.1025 | 825.2 | 1.46808 | 1193.3
x2 = 0.1998 | 798.6 | 1.45273 | 1165.5
x2 = 0.2987 | 775 | 1.43808 | 1142.8
x2 = 0.3972 | 754.3 | 1.42586 | 1124.4
x2 = 0.5013 | 734.9 | 1.4148 | 1108.9
x2 = 0.5998 | 718.5 | 1.40552 | 1096.8
x2 = 0.698 | 703.7 | 1.39777 | 1086.4
x2 = 0.8043 | 689.4 | 1.38985 | 1077.8
x2 = 0.9013 | 677.7 | 1.38322 | 1071.6
x2 = 0.9518 | 671.9 | 1.38025 | 1068.8

CCCCCCC [heptane] + Cc1ccccc1
x1 = 1
Details | mass density [kg/m3] | refractive index | speed of sound [m/s]
[1] | – | 1.37737 | –
[2] | 666.6 | – | 1066.5

CCc1ccccc1 [ethylbenzene] + CCCCCC
Details | mass density, [2] [kg/m3] | refractive index, [1] | speed of sound, [2] [m/s]
x2 = 0 | 849.2 | 1.48426 | 1256.9
x2 = 0.0465 | 839.4 | 1.47929 | 1243.8
x2 = 0.0771 | 832.8 | 1.47548 | 1235
x2 = 0.201 | 806.5 | 1.46016 | 1200.8
x2 = 0.3015 | 785.2 | 1.44756 | 1173.9
x2 = 0.399 | 764.7 | 1.43582 | 1148.5
x2 = 0.5092 | 741.7 | 1.42251 | 1121.1
x2 = 0.601 | 722.6 | 1.41135 | 1098.9
x2 = 0.7012 | 702 | 1.39924 | 1075.7
x2 = 0.7999 | 681.9 | 1.38766 | 1054.1
x2 = 0.8993 | 661.7 | 1.3759 | 1031.8
x2 = 0.9534 | 650.8 | 1.36962 | 1020.3

CCCCCCCC [octane] + Cc1ccccc1
Details | mass density, [2] [kg/m3] | refractive index, [1] | speed of sound, [2] [m/s]
x1 = 0.0542 | 834.6 | 1.47708 | 1226.2
x1 = 0.1022 | 823.4 | 1.46982 | 1214.8
x1 = 0.2014 | 802 | 1.45667 | 1194.1
x1 = 0.3037 | 782 | 1.44463 | 1176.2
x1 = 0.3965 | 765.5 | 1.43362 | 1162.3
x1 = 0.4983 | 749.1 | 1.42473 | 1149.7
x1 = 0.5986 | 734.3 | 1.41567 | 1139.1
x1 = 0.7016 | 720.5 | 1.4075 | 1130
x1 = 0.8007 | 708.4 | 1.40046 | 1122.5
x1 = 0.902 | 696.6 | 1.39376 | 1116.1
x1 = 0.9493 | 691.6 | 1.39079 | 1113.1
x1 = 1 | 686.3 | 1.38769 | 1110.6

Cc1ccccc1 [toluene] + CCCCCCCCC
x2 = 0
Details | mass density [kg/m3] | refractive index | speed of sound [m/s]
[1] | – | 1.48464 | –
[2] | 848 | – | 1240.7

CCCCCC [hexane] + Cc1ccccc1
Details | mass density, [2] [kg/m3] | refractive index, [1] | speed of sound, [2] [m/s]
x1 = 0.1032 | 822.9 | 1.47028 | 1208.5
x1 = 0.198 | 800.5 | 1.4571 | 1180.8
x1 = 0.2997 | 777.5 | 1.44367 | 1153.5
x1 = 0.4027 | 755.1 | 1.43045 | 1127.5
x1 = 0.5005 | 734.6 | 1.41844 | 1104.6
x1 = 0.5998 | 714.7 | 1.40685 | 1083.1
x1 = 0.6987 | 695.5 | 1.3956 | 1063.3
x1 = 0.7984 | 677 | 1.38476 | 1044.5
x1 = 0.9042 | 658.1 | 1.37387 | 1026.3
x1 = 1 | 641.4 | 1.36411 | 1010.3

CCCCCCCC [octane] + c1ccccc1
Details | mass density, [2] [kg/m3] | refractive index, [1] | speed of sound, [2] [m/s]
x1 = 0.0541 | 839.6 | 1.4762 | 1210.5
x1 = 0.1014 | 825.5 | 1.46817 | 1196.3
x1 = 0.202 | 799.3 | 1.45259 | 1172.2
x1 = 0.3022 | 777.2 | 1.4384 | 1154.3
x1 = 0.404 | 758.4 | 1.42757 | 1140.9
x1 = 0.5023 | 742.2 | 1.41799 | 1131
x1 = 0.6011 | 728.3 | 1.41072 | 1123.7
x1 = 0.7087 | 714.9 | 1.4035 | 1118
x1 = 0.8051 | 704.4 | 1.3977 | 1114.4
x1 = 0.9015 | 695 | 1.39253 | 1112.1
x1 = 0.9514 | 690.5 | 1.39004 | 1111.2
x1 = 1 | 686.3 | 1.38769 | 1110.6
